Reference: ChEMBL document CHEMBL1147323, “The effect of ginsenoside-Rb2 on nitrogen balance” (1989)

Tests used:
Rattus norvegicus [1] = test: Effect on nitrogen balance in Wistar rat diabetic model assessed as residual urinary nitrogen at 10 mg/day, ip for 6 days measured 6 hrs after last dose relative to non-diabetic control; type: functional, Urine
Rattus norvegicus [2] = test: Effect on nitrogen balance in Wistar rat diabetic model assessed as residual urinary nitrogen at 10 mg/day, ip for 6 days measured 6 hrs after last dose relative to diabetic control; type: functional, Urine
Rattus norvegicus [3] = test: Effect on nitrogen balance in Wistar rat diabetic model assessed as residual fecal nitrogen at 10 mg/day, ip for 6 days measured 6 hrs after last dose relative to non-diabetic control; type: functional, Feces
Rattus norvegicus [4] = test: Effect on nitrogen balance in Wistar rat diabetic model assessed as residual fecal nitrogen at 10 mg/day, ip for 6 days measured 6 hrs after last dose relative to diabetic control; type: functional, Feces
Rattus norvegicus [5] = test: Effect on nitrogen balance in Wistar rat diabetic model assessed as absorbed nitrogen at 10 mg/day, ip for 6 days measured 6 hrs after last dose relative to non-diabetic control; type: functional
Rattus norvegicus [6] = test: Effect on nitrogen balance in Wistar rat diabetic model assessed as absorbed nitrogen at 10 mg/day, ip for 6 days measured 6 hrs after last dose relative to diabetic control; type: functional
Rattus norvegicus [7] = test: Effect on nitrogen balance in Wistar rat diabetic model assessed as retained nitrogen at 10 mg/day, ip for 6 days measured 6 hrs after last dose relative to non-diabetic control; type: functional
Rattus norvegicus [8] = test: Effect on nitrogen balance in Wistar rat diabetic model assessed as retained nitrogen at 10 mg/day, ip for 6 days measured 6 hrs after last dose relative to diabetic control; type: functional

## CC(C)=CCC[C@](C)(O[C@@H]1O[C@H](CO[C@@H]2OC[C@H](O)[C@H](O)[C@H]2O)[C@@H](O)[C@H](O)[C@H]1O)[C@H]1CC[C@]2(C)[C@@H]1[C@H](O)C[C@@H]1[C@@]3(C)CC[C@H](O[C@@H]4O[C@H](CO)[C@@H](O)[C@H](O)[C@H]4O[C@@H]4O[C@H](CO)[C@@H](O)[C@H](O)[C@H]4O)C(C)(C)[C@@H]3CC[C@]12C [GINSENOSIDE RB2]
Rattus norvegicus [1]
  Activity: 223%
Rattus norvegicus [2]
  Activity: 75%
Rattus norvegicus [3]
  Activity: 186%
Rattus norvegicus [4]
  Activity: 93%
Rattus norvegicus [5]
  Activity: 225%
Rattus norvegicus [6]
  Activity: 104%
Rattus norvegicus [7]
  Activity: 313%
Rattus norvegicus [8]
  Activity: 415%
